In patent US20180193412A1, “Method of In Vivo Treatment” (Hexima Limited, priority 2015, published 2018):

Assays:
C. gattii = experiment: Inhibition of growth of C. gattii, Example 2 antifungal assay; format: cell-based; details: ½ strength PDB, 30° C., A595
Method: (§1) The inhibitory effects of the plant defensins on the growth of Candida albicans, Aspergillus fumigatus (obtained from the National Mycology Reference Centre, South Australia Pathology at the Women's and Children's Hospital, Adelaide, Australia), C. glabrata, C. tropicalis, A. flavus, A. niger, A. fumigants, Cryptococcus neoformans and C. gattii (obtained from Dee Carter, University of Sydney, New South Wales, Australia) are measured essentially as described by Broekaert et al. (1990) FEMS Microbiol Lett 69:55-59.
(§2) Spores of A. flavus. A. niger and A. fumigatus are isolated from sporulating fungus growing on ½ strength Sabouraud dextrose agar. Spores were removed from the plates by the addition of ½ strength potato dextrose broth (PDB). C. albicans, C. glabrata, C. tropicalis, C. neoformans and C. gattii cells are grown in Yeast Peptone Broth (YPD) for 16 h. Spore and cell concentrations are measured using a hemocytometer.
(§3) Antifungal assays are conducted in 96 well microtitre plates essentially as herein described. Wells are loaded with 20 μL of filter sterilized (0.22 μm syringe filter, Millipore) defensin (10× stock for each final concentration) or water and 80 μL of 5×10^4 spores/mL (A. flavus, A. niger, A. fumigatus), 5,000 cells/mL (C. albicans, C. glabrata, C. tropicalis) or 1×10^6 cells/mL (C. neoformans, C. gattii) in ½ strength PDB. The plates are incubated at 30° C. Fungal growth is assayed by measuring optical density at 595 nm (A595) using a microtitre plate reader (SpectraMax Pro M2; Molecular Devices. Growth is allowed to proceed until the optical density (OD) of the fungus in the absence of any test defensin reached an OD of 0.2. Each test is performed in duplicate.

A. flavus = experiment: Inhibition of growth of A. flavus, Example 2 antifungal assay; format: cell-based; details: ½ strength PDB, 30° C., A595
Method: as §1, §2, §3

C. glabrata = experiment: Inhibition of growth of C. glabrata, Example 2 antifungal assay; format: cell-based; details: ½ strength PDB, 30° C., A595
Method: as §1, §2, §3

C. albicans = experiment: Inhibition of growth of Candida albicans, Example 2 antifungal assay; format: cell-based; details: Table 4; ½ strength PDB, 30° C., A595
Method: as §1, §2, §3

C. tropicalis = experiment: Inhibition of growth of C. tropicalis, Example 2 antifungal assay; format: cell-based; details: ½ strength PDB, 30° C., A595
Method: as §1, §2, §3

C. neoformans = experiment: Inhibition of growth of Cryptococcus neoformans, Example 2 antifungal assay; format: cell-based; details: ½ strength PDB, 30° C., A595
Method: as §1, §2, §3

T. interdigitale = experiment: Inhibition of growth of T. interdigitale by plant defensins (microtitre A595 antifungal assay); format: cell-based, Trichophyton interdigitale; details: ½ strength PDB, 30° C.
Method: The inhibitory effects of the plant defensins on the growth of Trichophyton rubrum, T. interdigitale, Microsporum fulvum and C. albicans (all obtained from the National Mycology Reference Centre, South Australia Pathology at the Women's and Children's Hospital, Adelaide, Australia) are measured essentially as described by Broekaert et al. (1990) FEMS Microbiol Lett 69:55-59.
as §2, with “T. rubrum, T. interdigitale” for “A. flavus. A. niger”, “M. fulvum” for “A. fumigatus”, “albicans” for “albicans, C. glabrata, C. tropicalis, C. neoformans and C. gattii”
as §3, with “Ξ m” for “μm”, “(T. rubrum, T. interdigitale, M. fulvum) or” for “(A. flavus, A. niger, A. fumigatus),”, “albicans)” for “albicans, C. glabrata, C. tropicalis) or 1×10^6 cells/mL (C. neoformans, C. gattii)”

A. fumigatus = experiment: Inhibition of growth of Aspergillus fumigatus, Example 2 antifungal assay; format: cell-based; details: ½ strength PDB, 30° C., A595
Method: as §1, §2, §3

A. niger = experiment: Inhibition of growth of A. niger, Example 2 antifungal assay; format: cell-based; details: ½ strength PDB, 30° C., A595
Method: as §1, §2, §3

## HXL008: Class I plant defensin from Picramnia pentandra (KVCTKPSKFFKGLCGTDGACTTACRKEGLHSGYCQLKGFLNSVCVCRKHC; HXL008 Picramnia pentandra)
C. gattii
  IC50 against C. gattii: 12 µg/mL
A. flavus
  IC50 against A. flavus: 40 µg/mL
C. glabrata
  IC50 against C. glabrata: 20 µg/mL
C. albicans
  IC50 against C. albicans: 20 µg/mL
C. tropicalis
  IC50 against C. tropicalis: 7 µg/mL
C. neoformans
  IC50 against C. neoformans: 2.5 µg/mL
T. interdigitale
  IC50 against T. interdigitale: 3.5 µg/mL
A. fumigatus
  IC50 against A. fumigatus: 7.5 µg/mL
A. niger
  IC50 against A. niger: 42 µg/mL
